Test [1] concerns MCF7 cell. The test can be described thus: Inhibition of proliferation of MCF7 cell (CellTiter-Glo, 144 hours). It counts as cell-based. The following applies: Homo sapiens; for IC50: MCF7, CellTiter-Glo, read-out: IC50 of the inhibitory effect on the proliferation of MCF7 cell; for Emax: MCF7 cell proliferation, read-out: Maximum inhibition. The essentials: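 Seeded overnight, MCF7 cells were treated in MEM with 2% FBS with nine 4-fold dilutions from 100 nM (0.5% DMSO blank). Incubation 144 h at 37° C, 5% CO2. CellTiter-Glo luminescence read; IC50 from signal versus log concentration.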

Test [2] relates to MCF7 D538G. In words: Inhibition of proliferation of MCF7 cell expressing ERα D538G mutant. It counts as cell-based. The following applies: Homo sapiens, 144 hours; for Emax: read-out: Maximum inhibition. The essentials:
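MCF7 cells stably expressing lentiviral ERα Y537S or D538G mutants, seeded 3,000 cells/well, then exposed in 2% FBS MEM to nine 4-fold dilutions from 100 nM for 144 h at 37° C. Viability read by CellTiter-Glo luminescence; IC50 fitted from concentration-response.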

Each structure is given as a SMILES string.

As for `O=C(/C=C/CNC1(COc2ccc(/C(=C(/CC(F)(F)F)c3ccccc3)c3ccc4[nH]nc(F)c4c3)cn2)CC1)N1CCOCC1` [Example 1, (E)-1-Morpholino-4-((1-(((5-((Z)-4,4,4-trifluoro-1-(3-fluoro-1H-indazol-5-yl)-2-phenylbut-1-en-1-yl)pyridin-2-yl)oxy)methyl)cyclopropyl)amino)but-2-en-1-one], in test [1], the IC50 worked out at 0.5 nM and the Emax came out at 100%. In addition, in test [2], the IC50 was found to be 2 nM and the Emax was found to be 100%.
In the case of `CN(C)C(=O)/C=C/CN1CCC[C@@H](Oc2ccc(/C(=C(/CC(F)(F)F)c3ccccc3)c3ccc4[nH]nc(F)c4c3)cn2)C1` [Example 14, (E)-N,N-Dimethyl-4-((R)-3-((5-((Z)-4,4,4-trifluoro-1-(3-fluoro-1H-indazol-5-yl)-2-phenylbut-1-en-1-yl)pyridin-2-yl)oxy)piperidin-1-yl)but-2-enamide], in test [1], the IC50 worked out at 0.8 nM and the Emax amounted to 108%. In addition, in test [2], the IC50 worked out at 3 nM and the Emax is 107%.
The corresponding values for `O=C(/C=C/CN1CCC[C@@H](Oc2ccc(/C(=C(/CC(F)(F)F)c3ccccc3)c3ccc4[nH]nc(F)c4c3)cn2)C1)N1CCCC1` [Example 15, (E)-1-(Pyrrolidin-1-yl)-4-((R)-3-((5-((Z)-4,4,4-trifluoro-1-(3-fluoro-1H-indazol-5-yl)-2-phenylbut-1-en-1-yl)pyridin-2-yl)oxy)piperidin-1-yl)but-2-en-1-one] are 0.2 nM, 107%, 1 nM and 105%.
The corresponding values for `CN(C)C(=O)/C=C/CNC1(COc2ccc(/C(=C(/CC(F)(F)F)c3ccccc3)c3ccc4[nH]nc(F)c4c3)cn2)CC1` [Example 39, (E)-N,N-Dimethyl-4-((1-(((5-((Z)-4,4,4-trifluoro-1-(3-fluoro-1H-indazol-5-yl)-2-phenylbut-1-en-1-yl)pyridin-2-yl)oxy)methyl)cyclopropyl)amino)but-2-enamide] are 0.2 nM, 113%, 0.6 nM and 105%.
The corresponding values for `O=C(/C=C/CNC1(COc2ccc(/C(=C(/CC(F)(F)F)c3ccccc3)c3ccc4[nH]nc(F)c4c3)cn2)CC1)N1CC(O)C1` [Example 40, (E)-1-(3-Hydroxyazetidin-1-yl)-4-((1-(((5-((Z)-4,4,4-trifluoro-1-(3-fluoro-1H-indazol-5-yl)-2-phenylbut-1-en-1-yl)pyridin-2-yl)oxy)methyl)cyclopropyl)amino)but-2-en-1-one] are 0.1 nM, 115%, 0.2 nM and 106%.
As to `O=C(/C=C/CNC1(COc2ccc(/C(=C(/CC(F)(F)F)c3ccccc3)c3ccc4[nH]nc(F)c4c3)cn2)CC1)N1CC[C@H](O)C1` [Example 41, (E)-1-((S)-3-Hydroxypyrrolidin-1-yl)-4-((1-(((5-((Z)-4,4,4-trifluoro-1-(3-fluoro-1H-indazol-5-yl)-2-phenylbut-1-en-1-yl)pyridin-2-yl)oxy)methyl)cyclopropyl)amino)but-2-en-1-one], in test [1], the IC50 was found to be 0.1 nM and the Emax is 115%. For the same compound, in test [2], the IC50 was found to be 0.2 nM and the Emax was 106%.
The corresponding values for `O=C(/C=C/CNC1(COc2ccc(/C(=C(/CC(F)(F)F)c3ccccc3)c3ccc4[nH]nc(F)c4c3)cn2)CC1)N1CCO[C@@H](CO)C1` [Example 42, (E)-1-((R)-2-(Hydroxymethyl)morpholino)-4-((1-(((5-((Z)-4,4,4-trifluoro-1-(3-fluoro-1H-indazol-5-yl)-2-phenylbut-1-en-1-yl)pyridin-2-yl)oxy)methyl)cyclopropyl)amino)but-2-en-1-one] are 0.03 nM, 105%, 0.1 nM and 105%.

These data come from US12325696B2, “Indazole derivative, preparation method therefor, and pharmaceutical application thereof” (JIANGSU HENGRUI MEDICINE CO., LTD., priority 2019, dated 2025).
